# Assay results published in patent publication US12568991B2, “Method for increasing the solubility and stability of organic compositions” (GLANBIA DAIRY NUTRITION LIMITED, priority 2017, dated 2026).
# What was measured:
# [1] = individuals who have high cholesterol; cited from earlier work
# [2] = assay type: physicochemical; details: pH 7
# Source text: Creatine Formulation: A solution of surfactants was made by combining soy lecithin with 48-98% acetone insolubility (3.1 to 9.9 g/100 g as in dispersion or 9.2 to 16.9 g/100 g as in powder) in water (pH 7.0), with maltodextrin MD040 (Maltrin®, Grain Processing Corporation, 4.9-10.2 g/100 g as in dispersion or 12.4-17.7 g/100 g as in powder). Then the micronized (200 Mesh size or 70-80 μm) creatine monohydrate (23.7-40.2 g/100 g as in dispersion or 65.2-79.3 g/100 g as in powder), along with Alpha cyclodextrin (Cavamax®, Wacker Chemie AG, 0-0.26 g/100 g as in dispersion or 0-0.4 g/100 g as in powder), was added to the above solution of surfactants. After premixing the dispersion, it was run through the homogenizer at 500 psi/34 bar, 1 pass. The dispersion thus formed was heated to a pasteurization temperature of 72° C., for 30 min. Finally, this dispersion was spray dried, with TInlet=220-230° C. and TOutlet=92-100° C. Creatine shelf stability was evaluated at pH 3.3-7.0.
# For the shelf-stability study, the corresponding spray-dried powders produced from the slurry were used for determining the chemical stability of limited-solubility organic compounds either in a neutral pH (6.8-7.0) drink or an acidic pH (3.3-3.7) drink formula. For this determination, the limited-solubility organic compound-containing beverages were prepared at their respective pHs, using spray-dried powder. […]
Structure (SMILES),reduction of cholesterol [1],"creatine degradation curve (y=% creatine levels, after (x) number of days) [2]"
CN(CC(=O)O)C(=N)N [creatine],up to 15%,–
CN(CC(=O)O)C(=N)N.O [creatine monohydrate],–,y=48.294e^−0.024x
